We go through two molecules from patent US12161634B2, “Pyruvate kinase R (PKR) activating compositions” (Novo Nordisk Health Care AG, priority 2020, dated 2024).

A short description of this data set: Dynamic vapor sorption (DVS). The data set is classed as physicochemical. The note with it: for hygroscopicity: DVS at RT; for water uptake from 60% RH to 80% RH / water uptake up to 60% RH: DVS; for water uptake from 60% RH to 80% RH / water uptake up to 60% RH / form change before and after DVS test: RT; for water uptake up to 60% RH: up to 60% RH (ambient condition); for form change before and after DVS test: determined by XRPD. As for the experimental part: Dynamic Vapor Sorption (DVS) was measured with a Surface Measurement System (SMS) DVS Intrinsic.

As for `O=C([C@H](CO)c1ccccc1)N1CC2=C(C1)CN(S(=O)(=O)c1cnc3c(c1)OCCO3)C2` [Type B, (S)-1-(5-[2H,3H-[1,4]dioxino[2,3-b]pyridine-7-sulfonyl]-1H,2H,3H,4H,5H,6H-pyrrolo[3,4-c]pyrrol-2-yl)-3-hydroxy-2-phenylpropan-1-one], the hygroscopicity result is recorded as “hygroscopic”; the “water uptake from 60% RH to 80% RH” value was determined as 0.4%; the “water uptake up to 60% RH” value was determined as 2.9%; the “form change before and after DVS test” value was “No form change”.
The corresponding values for `O=C([C@H](CO)c1ccccc1)N1CC2=C(C1)CN(S(=O)(=O)c1cnc3c(c1)OCCO3)C2` [Type C, (S)-1-(5-[2H,3H-[1,4]dioxino[2,3-b]pyridine-7-sulfonyl]-1H,2H,3H,4H,5H,6H-pyrrolo[3,4-c]pyrrol-2-yl)-3-hydroxy-2-phenylpropan-1-one] are “hygroscopic”, 0.5%, 1.8% and “No form change”.
